Experimental data as given in patent publication US20160017399A1, “ELECTROCHEMICAL-BASED ANALYTICAL TEST STRIP WITH ENZYMATIC REAGENT LAYER CONTAINING A NAPHTHOQUINONE-BASED MEDIATOR AND FAD-GDH” (LifeScan Scotland Limited, priority 2014, published 2016).
Like-named read-outs stand apart in the source and are kept apart here.

Assays:
[1] = solubility at room temperature; type: physicochemical
Text: Compound A is an orange amorphous solid, soluble in base and neutral phosphate buffer at room temperature. Compound A has the following beneficial electrochemical characteristics: • E0=0.086V vs Ag/AgCl (0.1M KCl) • kcat=900 s^−1 where E0 is the formal redox potential vs Ag/AgCl (compare to 0.25V for ferricyanide) and kcat is the rate constant for homogeneous electron transfer between the mediator (i.e., Compound A) and enzyme cofactor FAD. It is noted that E0 for ferricyanide is 0.25V and kcat for ferricyanide is 230 s^−1. Compound A has both an E0 that is beneficially lower than that of ferricyanide (and thus less is less susceptible to interferents) and a kcat that is beneficially higher than that of ferricyanide.
Compound B is an orange amorphous solid, soluble in base and neutral phosphate buffer at room temperature. […] has the following beneficial electrochemical characteristics: • E0=0.016V vs Ag/AgCl (0.1M KCl) • kcat=100 s^−1 where E0 is the formal redox potential vs Ag/AgCl (compare to 0.25V for ferricyanide) and kcat is the rate constant for homogeneous electron transfer between the mediator (i.e., Compound A) and enzyme cofactor FAD. It is noted that E0 for ferricyanide is 0.25V and kcat for ferricyanide is 230 s^−1. […]

[2] = storage stability (glucose sensitivity after storage); type: physicochemical; details: storage for 26 days at 40 degrees Celsius

SMILES	solubility ([1]; in base and neutral phosphate buffer at room temperature)	reduction in glucose sensitivity after storage [2]	solubility [1]
O=C(O)CCSC1=CC(=O)C(=O)c2ccccc21 [Compound B, 1,2-naphthalenedione-4-(3-mercaptopropionic acid)]	soluble	no reduction in glucose sensitivity	–
O=C1C=C(SCCCS(=O)(=O)O)c2ccccc2C1=O [Compound A, 1,2-naphthalenedione-4-(3-mercapto-1-propanesulfonic acid)]	–	no reduction in glucose sensitivity	soluble
